Measurements: PMC4032190 (Journal of medicinal chemistry, 2014)
Each block holds one molecule with its values, some of them ahead of it.

How the values were obtained:
[1] = Chemical stability in FRET-suppression assay buffer; conditions: rt, over 12 hours, LCMS
XBP-1s expression [2] = experiment: Inhibition of XBP-1s expression in LPS-stimulated wild-type mouse B cells; assay type: cell-based; conditions: immunoblot
XBP-1s expression [3] = experiment: Inhibition of XBP-1s expression in Mino cells; assay type: cell-based, human; conditions: 20 µM, 24 h, immunoblot
XBP-1s expression [4] = experiment: Inhibition of XBP-1s expression in Jeko cells; assay type: cell-based, human; conditions: 20 µM, 24 h, immunoblot
[5] = target: recombinant human IRE-1 (RNase activity) (Homo sapiens, UniProt O75460); experiment: In vitro IRE-1 RNase FRET-suppression assay; assay type: biochemical; conditions: up to 20 µM
recombinant human IRE-1 (RNase activity), sequence (O75460 547-977): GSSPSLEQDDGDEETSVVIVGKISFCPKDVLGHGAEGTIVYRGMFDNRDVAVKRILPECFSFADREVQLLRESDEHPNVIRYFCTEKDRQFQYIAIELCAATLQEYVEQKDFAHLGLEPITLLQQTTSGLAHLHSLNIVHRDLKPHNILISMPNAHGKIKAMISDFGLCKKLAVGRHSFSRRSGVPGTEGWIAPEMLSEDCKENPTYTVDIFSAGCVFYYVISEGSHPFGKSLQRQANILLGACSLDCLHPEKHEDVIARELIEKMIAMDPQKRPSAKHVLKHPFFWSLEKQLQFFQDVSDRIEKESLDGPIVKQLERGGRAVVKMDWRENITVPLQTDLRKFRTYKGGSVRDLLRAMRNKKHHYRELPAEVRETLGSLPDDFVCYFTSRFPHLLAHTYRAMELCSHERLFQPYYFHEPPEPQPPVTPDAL

Mino cells = experiment: PARP cleavage; assay type: cell-based, human; conditions: 50 µM, 72 h, immunoblot
Jeko cells = experiment: PARP cleavage; assay type: cell-based, human; conditions: 50 µM, 72 h, immunoblot

decomposition of the 1,3-dioxane moiety [1]: no significant decomposition
SMILES: C=CCOC(=O)N1CCc2c(c(=O)oc3c(C4OCCCO4)c(O)ccc23)C1 [Compound 24, Allyl 7-(1,3-dioxan-2-yl)-8-hydroxy-5-oxo-4,5-dihydro-1H-chromeno[3,4-c]pyridine-3(2H)-carboxylate]

SMILES: Cc1cc(=O)oc2c(C=O)c(O)ccc12 [Compound 5]
inhibition of XBP-1s expression (XBP-1s expression [2]; 20 µM, 24 h): strong inhibition

SMILES: O=Cc1c(O)ccc2ccccc12 [Compound 2]
inhibition of XBP-1s expression (XBP-1s expression [2]; 50 µM): strong inhibition

SMILES: C=C(C)CN1CCc2c(c(=O)oc3c(C=O)c(O)ccc23)C1 [Compound 33, 8-Hydroxy-3-(2-methylallyl)-5-oxo-2,3,4,5-tetrahydro-1H-chromeno[3,4-c]pyridine-7-carbaldehyde]
suppression of XBP-1s expression (XBP-1s expression [3]): significant activity
suppression of XBP-1s expression (XBP-1s expression [4]): significant activity

IRE-1 RNase inhibition (in words) [5]: complete loss of potency below 20 µM
SMILES: C=CCOC(=O)N1CCc2c(c(=O)oc3c(C=O)c(OCc4ccccc4)ccc23)C1 [Compound 27, Allyl 7-formyl-8-benzyloxy-5-oxo-4,5-dihydro-1H-chromeno[3,4-c]pyridine-3(2H)-carboxylate]

IRE-1 RNase inhibition (in words) [5]: no appreciable inhibition
SMILES: NS(=O)(=O)c1cccs1 [Compound 8, reference compound]

SMILES: CN1CCc2c(c(=O)oc3c(C=O)c(O)ccc23)C1 [Compound 30, 8-Hydroxy-3-methyl-5-oxo-2,3,4,5-tetrahydro-1H-chromeno[3,4-c]pyridine-7-carbaldehyde]
PARP cleavage (Mino cells): more strongly than either 21b or 5
PARP cleavage (Jeko cells): more strongly than either 21b or 5
